We go through seven cell lines from the supplement of paper PMC10307832.

Common to all, as to assay: relative viability (nuclei count vs DMSO), 5 days (fraction); higher = more cells survive
Compound in assay [1]: C1COCCN1C2=NC(=NC3=C2OC4=C3C=CC=N4)C5=CC(=CC=C5)NC(=O)C6=CN=C(C=C6)N + CC(C)C[C@H](NC(=O)[C@H](Cc1ccccc1)NC(=O)c1cnccn1)B(O)O [Bortezomib] (partner 0.002 µM)
The gist of the method: (§1)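 Relative viability divides the nuclei count in treated wells by that in vehicle wells. Lung cancer cell lines were seeded in 1536-well plates, dosed by pin tool the next day, and fixed and stained after 5 days in one step with final 0.05% Triton X-100, 1% formaldehyde and 1 ug/ml Hoechst. Dosing was a single drug or a fixed anchor-drug dose plus five library-drug doses (not always all listed) in √10 steps, and values are medians of duplicate plates imaged at 4×.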

Compound in the assay “SGI-1776 + Tozasertib”: CN1CCC(CNc2ccc3ncc(-c4cccc(OC(F)(F)F)c4)n3n2)CC1 [SGI-1776] + Cc1cc(Nc2cc(N3CCN(C)CC3)nc(Sc3ccc(NC(=O)C4CC4)cc3)n2)n[nH]1 [Tozasertib] (partner 0.1 µM)
The gist of the method:
as §1

Compound in the assay “Entinostat + Vorinostat”: Nc1ccccc1NC(=O)c1ccc(CNC(=O)OCc2cccnc2)cc1 [Entinostat] + O=C(CCCCCCC(=O)Nc1ccccc1)NO [Vorinostat] (partner 1 µM)
The method in brief:
as §1

Compound in assay [2]: C1COCCN1C2=NC(=NC3=C2OC4=C3C=CC=N4)C5=CC(=CC=C5)NC(=O)C6=CN=C(C=C6)N + COc1cc2c(Oc3ccc(NC(=O)C4(C(=O)Nc5ccc(F)cc5)CC4)cc3F)ccnc2cc1OCCCN1CCOCC1 [Foretinib] (partner 0.25 µM)
The gist of the method: as §1

Take NCI-H1355: the relative viability in assay [1] (first compound 0.02 µM) came to 1.24; in assay [1] (first compound 0.06325 µM), 1.25; in assay [1] (first compound 0.2 µM), 1.27; in assay [1] (first compound 0.6325 µM), 1.21; in assay [1] (first compound 2 µM), 1.06; in the assay with SGI-1776 + Tozasertib (first compound 0.08 µM), 0.591. Besides, the relative viability with SGI-1776 + Tozasertib (first compound 0.8 µM) stood at 0.408; with SGI-1776 + Tozasertib (first compound 2.53 µM), 0.305; in the assay with SGI-1776 + Tozasertib (first compound 8 µM), 0.217; in the assay with Entinostat + Vorinostat (first compound 0.02 µM) it was 0.604; in the assay with Entinostat + Vorinostat (first compound 0.06325 µM), 0.638; in the assay with Entinostat + Vorinostat (first compound 0.2 µM) it was 0.62. For the same cell line, the relative viability with Entinostat + Vorinostat (first compound 0.6325 µM) came to 0.504; with Entinostat + Vorinostat (first compound 2 µM), 0.381; in assay [2] (first compound 0.02 µM), 0.995; in assay [2] (first compound 0.06325 µM), 1.12; in assay [2] (first compound 0.2 µM), 1.1; in assay [2] (first compound 0.6325 µM), 0.927. Further, the relative viability in assay [2] (first compound 2 µM) stood at 0.642.
As to NCI-H1437, the relative viability was 0.428 in assay [1] (first compound 0.02 µM); 0.733 in assay [1] (first compound 0.06325 µM); 0.483 in assay [1] (first compound 0.2 µM); 0.474 in assay [1] (first compound 0.6325 µM); 0.185 in assay [1] (first compound 2 µM); 0.435 in the assay with SGI-1776 + Tozasertib (first compound 0.08 µM). Besides, the relative viability worked out at 0.439 with SGI-1776 + Tozasertib (first compound 0.8 µM); 0.344 in the assay with SGI-1776 + Tozasertib (first compound 2.53 µM); 0.314 with SGI-1776 + Tozasertib (first compound 8 µM); 0.612 with Entinostat + Vorinostat (first compound 0.02 µM); 0.466 in the assay with Entinostat + Vorinostat (first compound 0.06325 µM); 0.383 with Entinostat + Vorinostat (first compound 0.2 µM). For the same cell line, the relative viability amounted to 0.261 in the assay with Entinostat + Vorinostat (first compound 0.6325 µM); 0.254 in the assay with Entinostat + Vorinostat (first compound 2 µM); 1.31 in assay [2] (first compound 0.02 µM); 1.29 in assay [2] (first compound 0.06325 µM); 1.2 in assay [2] (first compound 0.2 µM); 1.27 in assay [2] (first compound 0.6325 µM). In addition, in assay [2] (first compound 2 µM), the relative viability was 0.856.
As to NCI-H1650, the relative viability in assay [1] (first compound 0.02 µM) was 0.179; in assay [1] (first compound 0.06325 µM) it was 0.23; in assay [1] (first compound 0.2 µM) it was 0.205; in assay [1] (first compound 0.6325 µM), 0.191; in assay [1] (first compound 2 µM) it was 0.188; in the assay with SGI-1776 + Tozasertib (first compound 0.08 µM), 0.374. The relative viability was 0.287 with SGI-1776 + Tozasertib (first compound 0.8 µM); 0.214 with SGI-1776 + Tozasertib (first compound 2.53 µM); 0.226 with SGI-1776 + Tozasertib (first compound 8 µM); 0.794 in the assay with Entinostat + Vorinostat (first compound 0.02 µM); 0.747 with Entinostat + Vorinostat (first compound 0.06325 µM); 0.571 with Entinostat + Vorinostat (first compound 0.2 µM). In addition, the relative viability worked out at 0.438 with Entinostat + Vorinostat (first compound 0.6325 µM); 0.264 in the assay with Entinostat + Vorinostat (first compound 2 µM); 1.12 in assay [2] (first compound 0.02 µM); 1.15 in assay [2] (first compound 0.06325 µM); 0.974 in assay [2] (first compound 0.2 µM); 1.22 in assay [2] (first compound 0.6325 µM). The relative viability in assay [2] (first compound 2 µM) came to 0.76.
NCI-H1651: the relative viability in assay [1] (first compound 0.02 µM) was 1.03; in assay [1] (first compound 0.06325 µM), 0.998; in assay [1] (first compound 0.2 µM), 0.946; in assay [1] (first compound 0.6325 µM), 0.921; in assay [1] (first compound 2 µM) it was 0.743; with SGI-1776 + Tozasertib (first compound 0.08 µM) it was 0.619. For the same cell line, the relative viability worked out at 0.642 with SGI-1776 + Tozasertib (first compound 0.8 µM); 0.31 with SGI-1776 + Tozasertib (first compound 2.53 µM); 0.344 in the assay with SGI-1776 + Tozasertib (first compound 8 µM); 0.599 with Entinostat + Vorinostat (first compound 0.02 µM); 0.645 with Entinostat + Vorinostat (first compound 0.06325 µM); 0.449 in the assay with Entinostat + Vorinostat (first compound 0.2 µM). Besides, the relative viability was 0.496 in the assay with Entinostat + Vorinostat (first compound 0.6325 µM); 0.314 with Entinostat + Vorinostat (first compound 2 µM); 0.784 in assay [2] (first compound 0.02 µM); 0.786 in assay [2] (first compound 0.06325 µM); 0.723 in assay [2] (first compound 0.2 µM); 0.821 in assay [2] (first compound 0.6325 µM). In assay [2] (first compound 2 µM), the relative viability came out at 0.551.
With NCI-H1666, the relative viability in assay [1] (first compound 0.02 µM) amounted to 0.781; in assay [1] (first compound 0.06325 µM), 0.902; in assay [1] (first compound 0.2 µM) it was 0.735; in assay [1] (first compound 0.6325 µM), 0.588; in assay [1] (first compound 2 µM) it was 0.486; in the assay with SGI-1776 + Tozasertib (first compound 0.08 µM) it was 0.667. Also, the relative viability worked out at 0.44 with SGI-1776 + Tozasertib (first compound 0.8 µM); 0.406 in the assay with SGI-1776 + Tozasertib (first compound 2.53 µM); 0.436 with SGI-1776 + Tozasertib (first compound 8 µM); 1.05 with Entinostat + Vorinostat (first compound 0.02 µM); 0.979 in the assay with Entinostat + Vorinostat (first compound 0.06325 µM); 0.934 with Entinostat + Vorinostat (first compound 0.2 µM). The relative viability with Entinostat + Vorinostat (first compound 0.6325 µM) was determined as 0.835; with Entinostat + Vorinostat (first compound 2 µM), 0.601; in assay [2] (first compound 0.02 µM) it was 1; in assay [2] (first compound 0.06325 µM) it was 0.89; in assay [2] (first compound 0.2 µM), 0.774; in assay [2] (first compound 0.6325 µM), 0.85. Further, in assay [2] (first compound 2 µM), the relative viability is 0.672.
For NCI-H1734, the relative viability in assay [1] (first compound 0.02 µM) was 1.15; in assay [1] (first compound 0.06325 µM), 1.02; in assay [1] (first compound 0.2 µM) it was 0.835; in assay [1] (first compound 0.6325 µM), 0.801; in assay [1] (first compound 2 µM) it was 0.462; in the assay with SGI-1776 + Tozasertib (first compound 0.08 µM), 0.245. For the same cell line, the relative viability with SGI-1776 + Tozasertib (first compound 0.8 µM) came out at 0.226; with SGI-1776 + Tozasertib (first compound 2.53 µM), 0.246; in the assay with SGI-1776 + Tozasertib (first compound 8 µM) it was 0.219; in the assay with Entinostat + Vorinostat (first compound 0.02 µM), 0.846; with Entinostat + Vorinostat (first compound 0.06325 µM), 0.861; with Entinostat + Vorinostat (first compound 0.2 µM), 0.84. Also, the relative viability in the assay with Entinostat + Vorinostat (first compound 0.6325 µM) worked out at 0.604; with Entinostat + Vorinostat (first compound 2 µM), 0.489; in assay [2] (first compound 0.02 µM), 0.825; in assay [2] (first compound 0.06325 µM), 0.948; in assay [2] (first compound 0.2 µM), 0.695; in assay [2] (first compound 0.6325 µM), 0.804. Further, the relative viability in assay [2] (first compound 2 µM) turned out to be 0.563.
As for NCI-H1755, the relative viability turned out to be 0.947 in assay [1] (first compound 0.02 µM); 1.08 in assay [1] (first compound 0.06325 µM); 0.904 in assay [1] (first compound 0.2 µM); 0.918 in assay [1] (first compound 0.6325 µM); 0.613 in assay [1] (first compound 2 µM); 0.626 with SGI-1776 + Tozasertib (first compound 0.08 µM). The relative viability is 0.521 with SGI-1776 + Tozasertib (first compound 0.8 µM); 0.452 with SGI-1776 + Tozasertib (first compound 2.53 µM); 0.373 with SGI-1776 + Tozasertib (first compound 8 µM); 0.762 in the assay with Entinostat + Vorinostat (first compound 0.02 µM); 0.728 with Entinostat + Vorinostat (first compound 0.06325 µM); 0.769 with Entinostat + Vorinostat (first compound 0.2 µM). Besides, the relative viability amounted to 0.48 with Entinostat + Vorinostat (first compound 0.6325 µM); 0.374 with Entinostat + Vorinostat (first compound 2 µM); 0.902 in assay [2] (first compound 0.02 µM); 0.94 in assay [2] (first compound 0.06325 µM); 0.871 in assay [2] (first compound 0.2 µM); 0.805 in assay [2] (first compound 0.6325 µM). Further, the relative viability in assay [2] (first compound 2 µM) was found to be 0.622.
